Measured values taken from patent US7138361B2, “Herbicidal heterocycles” (E. I. du Pont de Nemours and Company, priority 2000, dated 2006).

Assays:
Assay type in all cases: in vivo
[1] = tested on: Surinam grass (Brachiaria decumbens); experiment: Test B postemergence
Procedure, shortened: (§1)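 Seeds were planted and sprayed preemergence with test chemical in a non-phytotoxic solvent mixture containing surfactant; postemergence plants (2 to 18 cm, 1- to 4-leaf stage) received the same formulation. Greenhouse hold 13 to 15 days, then visual rating versus untreated controls on a 0–100 scale (0 no effect, 100 complete control).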

[2] = tested on: barnyardgrass (Echinochloa crus-galli); experiment: Test B postemergence
Procedure, shortened: as §1

[3] = tested on: blackgrass (Alopecurus myosuroides); experiment: Test B postemergence
Procedure, shortened: as §1

[4] = tested on: cocklebur (Xanthium strumarium); experiment: Test B postemergence
Procedure, shortened: as §1

corn (Zea mays) [5] = experiment: Test B postemergence
Procedure, shortened: as §1

[6] = tested on: crabgrass (Digitaria sanguinalis); experiment: Test B postemergence
Procedure, shortened: as §1

[7] = tested on: giant foxtail (Setaria faberii); experiment: Test B postemergence
Procedure, shortened: as §1

[8] = tested on: lambsquarters (Chenopodium album); experiment: Test B postemergence
Procedure, shortened: as §1

[9] = tested on: morning glory (Ipomoea hederacea); experiment: Test B postemergence
Procedure, shortened: as §1

[10] = tested on: pigweed (Amaranthus retroflexus); experiment: Test B postemergence
Procedure, shortened: as §1

[11] = tested on: velvetleaf (Abutilon theophrasti); experiment: Test B postemergence
Procedure, shortened: as §1

[12] = tested on: wheat (Triticum aestivum); experiment: Test B postemergence
Procedure, shortened: as §1

wild oat (Avena fatua) = experiment: Test B postemergence
Procedure, shortened: as §1

[13] = tested on: Surinam grass (Brachiaria decumbens); experiment: Test B preemergence
Procedure, shortened: as §1

[14] = tested on: barnyardgrass (Echinochloa crus-galli); experiment: Test B preemergence
Procedure, shortened: as §1

[15] = tested on: cocklebur (Xanthium strumarium); experiment: Test B preemergence
Procedure, shortened: as §1

corn (Zea mays) [16] = experiment: Test B preemergence
Procedure, shortened: as §1

[17] = tested on: crabgrass (Digitaria sanguinalis); experiment: Test B preemergence
Procedure, shortened: as §1

[18] = tested on: giant foxtail (Setaria faberii); experiment: Test B preemergence
Procedure, shortened: as §1

[19] = tested on: lambsquarters (Chenopodium album); experiment: Test B preemergence
Procedure, shortened: as §1

[20] = tested on: morning glory (Ipomoea hederacea); experiment: Test B preemergence
Procedure, shortened: as §1

[21] = tested on: pigweed (Amaranthus retroflexus); experiment: Test B preemergence
Procedure, shortened: as §1

rice (Oryza saliva) = experiment: Test B preemergence
Procedure, shortened: as §1

[22] = tested on: velvetleaf (Abutilon theophrasti); experiment: Test B preemergence
Procedure, shortened: as §1

Nightshade = experiment: Test C preemergence; conditions: visual evaluation after 12 to 14 days
Sunflower = experiment: Test C preemergence; conditions: scale 0 to 100, 0 no effect, 100 complete control
[23] = Rate 125 g/ha, scale 0 (no effect) to 100 (complete control), 13 to 15 days
[24] = Rate 500 g/ha, scale 0 to 100, 0 is no effect, 100 is complete control, 13 to 15 days
[25] = Preemergence, Rate 500 g/ha, scale 0 to 100, 0 no effect, 100 complete control
[26] = preemergence, Rate 125 g/ha, scale of 0 to 100 where 0 is no effect and 100 is complete control, 13 to 15 days
[27] = Rate 125 g/ha, scale 0 to 100, 0 no effect, 100 complete control

## CC(C)(C)c1ccn(C2CCN(c3ccc(Cl)c(Br)c3)C2=O)n1 (stereo not shown) [Compound 56]
[1]; [23]
  Plant response rating, Surinam grass: 0
[1]; [24]
  Plant response rating, Surinam grass: 0
[2]; [23]
  Plant response rating, Barnyardgrass: 0
[2]; [24]
  Plant response rating, Barnyardgrass: 0
[3]; [23]
  Plant response rating, Blackgrass: 0
[3]; [24]
  Plant response rating, Blackgrass: 0
[4]; [23]
  Plant response rating, Cocklebur: 0
[4]; [24]
  Plant response rating, Cocklebur: 0
Corn (Zea mays) [5]; [23]
  Plant response rating, Corn: 0
Corn (Zea mays) [5]; [24]
  Plant response rating, Corn: 0
[6]; [23]
  Plant response rating, Crabgrass: 0
[6]; [24]
  Plant response rating, Crabgrass: 0
[7]; [23]
  Plant response rating, Foxtail, Giant: 0
[7]; [24]
  Plant response rating, Foxtail, Giant: 0
[8]; [23]
  Plant response rating, Lambsquarters: 80
[8]; [24]
  Plant response rating, Lambsquarters: 90
[9]; [23]
  Plant response rating, Morningglory: 0
[9]; [24]
  Plant response rating, Morningglory: 10
[10]; [23]
  Plant response rating, Pigweed: 90
[10]; [24]
  Plant response rating, Pigweed: 90
[11]; [23]
  Plant response rating, Velvetleaf: 0
[11]; [24]
  Plant response rating, Velvetleaf: 0
[12]; [23]
  Plant response rating, Wheat: 0
[12]; [24]
  Plant response rating, Wheat: 0
Wild oat (Avena fatua); [23]
  Plant response rating, Wild Oat: 0
Wild oat (Avena fatua); [24]
  Plant response rating, Wild Oat: 0
[13]; [25]
  Plant response rating, Surinam grass: 30
[13]; [26]
  Plant response rating, Surinam grass: 30
[14]; [25]
  Plant response rating, Barnyardgrass: 50
[14]; [26]
  Plant response rating, Barnyardgrass: 0
[15]; [26]
  Plant response rating, Cocklebur: 0
Corn (Zea mays) [16]; [25]
  Plant response rating, Corn: 0
Corn (Zea mays) [16]; [26]
  Plant response rating, Corn: 0
[17]; [25]
  Plant response rating, Crabgrass: 100
[17]; [26]
  Plant response rating, Crabgrass: 30
[18]; [25]
  Plant response rating, Foxtail, Giant: 90
[18]; [26]
  Plant response rating, Foxtail, Giant: 50
[19]; [25]
  Plant response rating, Lambsquarters: 100
[19]; [26]
  Plant response rating, Lambsquarters: 100
[20]; [25]
  Plant response rating, Morningglory: 0
[20]; [26]
  Plant response rating, Morningglory: 0
[21]; [25]
  Plant response rating, Pigweed: 100
[21]; [26]
  Plant response rating, Pigweed: 100
Rice (Oryza saliva); [25]
  Plant response rating, Rice: 0
Rice (Oryza saliva); [26]
  Plant response rating, Rice: 0
[22]; [25]
  Plant response rating, Velvetleaf: 0
[22]; [26]
  Plant response rating, Velvetleaf: 0
Nightshade; Rate 250 g/ha
  Plant response rating (0 to 100), Nightshade: 0
Sunflower; Rate 125 g/ha
  Plant response rating, Sunflower: 0

## CCOc1cccc(N2CCC(n3ccc(C(C)C)n3)C2=O)c1 (stereo not shown) [Compound 128]
[1]; [27]
  Plant response rating, Surinam grass: 70
[1]; [24]
  Plant response rating, Surinam grass: 100
[2]; [27]
  Plant response rating, Barnyardgrass: 0
[2]; [24]
  Plant response rating, Barnyardgrass: 80
[3]; [27]
  Plant response rating, Blackgrass: 0
[3]; [24]
  Plant response rating, Blackgrass: 0
[4]; [27]
  Plant response rating, Cocklebur: 0
[4]; [24]
  Plant response rating, Cocklebur: 50
Corn (Zea mays) [5]; [27]
  Plant response rating, Corn: 0
Corn (Zea mays) [5]; [24]
  Plant response rating, Corn: 0
[6]; [27]
  Plant response rating, Crabgrass: 0
[7]; [27]
  Plant response rating, Foxtail, Giant: 0
[8]; [27]
  Plant response rating, Lambsquarters: 0
[9]; [27]
  Plant response rating, Morningglory: 0
[10]; [27]
  Plant response rating, Pigweed: 0
[11]; [27]
  Plant response rating, Velvetleaf: 0
[12]; [27]
  Plant response rating, Wheat: 0
Wild oat (Avena fatua); [27]
  Plant response rating, Wild Oat: 0
[13]; [25]
  Plant response rating, Surinam grass: 100
[13]; [26]
  Plant response rating, Surinam grass: 100
[14]; [25]
  Plant response rating, Barnyardgrass: 100
[14]; [26]
  Plant response rating, Barnyardgrass: 100
[15]; [25]
  Plant response rating, Cocklebur: 60
[15]; [26]
  Plant response rating, Cocklebur: 0
Corn (Zea mays) [16]; [25]
  Plant response rating, Corn: 60
Corn (Zea mays) [16]; [26]
  Plant response rating, Corn: 30
[17]; [25]
  Plant response rating, Crabgrass: 100
[17]; [26]
  Plant response rating, Crabgrass: 100
[18]; [25]
  Plant response rating, Foxtail, Giant: 100
[18]; [26]
  Plant response rating, Foxtail, Giant: 100
[19]; [25]
  Plant response rating, Lambsquarters: 100
[19]; [26]
  Plant response rating, Lambsquarters: 100
[20]; [25]
  Plant response rating, Morningglory: 90
[20]; [26]
  Plant response rating, Morningglory: 70
[21]; [25]
  Plant response rating, Pigweed: 100
[21]; [26]
  Plant response rating, Pigweed: 100
Rice (Oryza saliva); [25]
  Plant response rating, Rice: 100
Rice (Oryza saliva); [26]
  Plant response rating, Rice: 100
[22]; [25]
  Plant response rating, Velvetleaf: 50
[22]; [26]
  Plant response rating, Velvetleaf: 0
Nightshade; Rate 500 g/ha
  Plant response rating (0 to 100), Nightshade: 100
Sunflower; Rate 250 g/ha
  Plant response rating, Sunflower: 100
